Laboratory results reported in publication PMC6218569, “Structural and Functional Characterization of PA14/Flo5-Like Adhesins From Komagataella pastoris” (Frontiers in Microbiology, 2018).
Blank lines part the entries; values can stand above or below the compound they belong to.

Assays:
Cea1A (=KpFlo1A) [1] = target: T1, Cea1A (=KpFlo1A) (Komagataella pastoris, UniProt A0A1B2J5V1); assay: ITC and co-crystal structure ([…] Å); type: binding
T1 construct: gene ATY40_BA7500007; A domain, D78-E296, N-terminally His6-tagged
T1 sequence (A0A1B2J5V1 entry or part of it): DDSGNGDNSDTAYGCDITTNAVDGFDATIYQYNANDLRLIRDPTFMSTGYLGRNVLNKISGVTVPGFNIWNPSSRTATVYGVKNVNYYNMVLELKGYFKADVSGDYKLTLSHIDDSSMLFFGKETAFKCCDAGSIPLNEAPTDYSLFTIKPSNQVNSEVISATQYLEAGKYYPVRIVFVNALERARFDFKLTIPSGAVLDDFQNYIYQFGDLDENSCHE

Cea1A (=KpFlo1A) [2] = target: T1, Cea1A (=KpFlo1A); assay: ITC and co-crystal structure ([…] Å); type: binding; details: read-out: Cea1A•N,N′-diacetylchitobiose
Cea1A (=KpFlo1A) [3] = target: T1, Cea1A (=KpFlo1A); assay: weak binding KD (Supplementary Figure S6), validated by fluorescence titration

Structure (SMILES): CC(=O)N[C@@H]1[C@@H](O)[C@H](O)[C@@H](CO)O[C@H]1O [GlcNAc]
Kd (Cea1A (=KpFlo1A) [1]): 7.67 ± 0.49 µM

Kd (Cea1A (=KpFlo1A) [2]): 13.1 ± 3.56 µM
Structure (SMILES): CC(=O)N[C@H]1[C@H](O[C@H]2[C@H](O)[C@@H](NC(C)=O)C(O)O[C@@H]2CO)O[C@H](CO)[C@@H](O)[C@@H]1O (stereo partly drawn) [N,N′-diacetylchitobiose]

Kd (Cea1A (=KpFlo1A) [3]): 2380 µM
Structure (SMILES): OC[C@H]1OC(O)[C@H](O)[C@@H](O)[C@@H]1O (stereo partly drawn) [glucose]
